Experiment in all cases: biochemical
Parameters in all cases: KINOMEscan competition binding panel (Eurofins DiscoverX), single concentration, percent inhibition
What all share (details): read-out: 15 at 1 µM % inhibition

Assay [1] has as its target ABL2 (Homo sapiens, UniProt P42684). A digest of the protocol: (§1)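 Binding was profiled in the KINOMEscan panel of over 400 human kinases, with each compound tested at a single concentration of 1 µM to map selectivity.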
In assay [2] the target is BRSK1 (Homo sapiens, UniProt Q8TDC3). A digest of the protocol: as §1
Assay [3] concerns the target BRSK2 (Homo sapiens, UniProt Q8IWQ3). A digest of the protocol: as §1
Assay [4] deals with T1, CAMK1B (Homo sapiens, UniProt Q6P2M8).
T1 construct: gene PNCK
An outline of the steps: as §1

The target in assay [5] is EGFR(L747-S752del, P753S) (Homo sapiens, UniProt P00533, DEL747-752/P753S). An outline of the steps:
as §1

In assay [6] the target is EIF2AK1 (Homo sapiens, UniProt Q9BQI3). A digest of the protocol:
as §1

The target in assay [7] is EPHA5 (Homo sapiens, UniProt P54756). A digest of the protocol:
as §1

Assay [8] concerns the target ERN1 (Homo sapiens, UniProt O75460). A digest of the protocol: as §1
The target of assay [9] is FGFR1 (Homo sapiens, UniProt P11362). An outline of the steps:
as §1

For assay [10], the target named is FLT3(R834Q) (Homo sapiens, UniProt P36888, R834Q). A digest of the protocol:
as §1

Assay [11] has as its target FLT3-autoinhibited (Homo sapiens, UniProt P36888). An outline of the steps: as §1
The target in assay [12] is HIPK2 (Homo sapiens, UniProt Q9H2X6). A digest of the protocol: as §1
For assay [13], the target named is T2, IKK-epsilon (Homo sapiens, UniProt Q14164).
T2 construct: gene IKBKE
A digest of the protocol:
as §1

The target in assay [14] is T3, MLK3 (Homo sapiens, UniProt Q16584).
T3 construct: gene MAP3K11
A digest of the protocol:
as §1

For assay [15], the target named is MYO3B (Homo sapiens, UniProt Q8WXR4). An outline of the steps: as §1
In assay [16] the target is NEK4 (Homo sapiens, UniProt P51957). A digest of the protocol: as §1
The target of assay [17] is PHKG1 (Homo sapiens, UniProt Q16816). A digest of the protocol: as §1
For assay [18], the target named is PIK3CA(H1047L) (Homo sapiens, UniProt P42336, H1047L). An outline of the steps:
as §1

The target of assay [19] is PIK3CG (Homo sapiens, UniProt P48736). A digest of the protocol:
as §1

Assay [20] deals with PKMYT1 (Homo sapiens, UniProt Q99640). An outline of the steps:
as §1

Assay [21] addresses PKN1 (Homo sapiens, UniProt Q16512). An outline of the steps:
as §1

Assay [22] deals with T4, RSK2(Kin.Dom.1-N-terminal) (Homo sapiens, UniProt P51812).
T4 construct: gene RPS6KA3; Kin.Dom.1-N-terminal
A digest of the protocol: as §1

The target in assay [23] is SRMS (Homo sapiens, UniProt Q9H3Y6). An outline of the steps:
as §1

The target in assay [24] is TAOK2 (Homo sapiens, UniProt Q9UL54). An outline of the steps: as §1

This is an account of results in article PMC7180948, “New Insights into 4-Anilinoquinazolines as Inhibitors of Cardiac Troponin I–Interacting Kinase (TNNi3K)” (Molecules, 2020).

The structures appear in SMILES notation.

Chain of MYO3B (Q8WXR4 whole entry): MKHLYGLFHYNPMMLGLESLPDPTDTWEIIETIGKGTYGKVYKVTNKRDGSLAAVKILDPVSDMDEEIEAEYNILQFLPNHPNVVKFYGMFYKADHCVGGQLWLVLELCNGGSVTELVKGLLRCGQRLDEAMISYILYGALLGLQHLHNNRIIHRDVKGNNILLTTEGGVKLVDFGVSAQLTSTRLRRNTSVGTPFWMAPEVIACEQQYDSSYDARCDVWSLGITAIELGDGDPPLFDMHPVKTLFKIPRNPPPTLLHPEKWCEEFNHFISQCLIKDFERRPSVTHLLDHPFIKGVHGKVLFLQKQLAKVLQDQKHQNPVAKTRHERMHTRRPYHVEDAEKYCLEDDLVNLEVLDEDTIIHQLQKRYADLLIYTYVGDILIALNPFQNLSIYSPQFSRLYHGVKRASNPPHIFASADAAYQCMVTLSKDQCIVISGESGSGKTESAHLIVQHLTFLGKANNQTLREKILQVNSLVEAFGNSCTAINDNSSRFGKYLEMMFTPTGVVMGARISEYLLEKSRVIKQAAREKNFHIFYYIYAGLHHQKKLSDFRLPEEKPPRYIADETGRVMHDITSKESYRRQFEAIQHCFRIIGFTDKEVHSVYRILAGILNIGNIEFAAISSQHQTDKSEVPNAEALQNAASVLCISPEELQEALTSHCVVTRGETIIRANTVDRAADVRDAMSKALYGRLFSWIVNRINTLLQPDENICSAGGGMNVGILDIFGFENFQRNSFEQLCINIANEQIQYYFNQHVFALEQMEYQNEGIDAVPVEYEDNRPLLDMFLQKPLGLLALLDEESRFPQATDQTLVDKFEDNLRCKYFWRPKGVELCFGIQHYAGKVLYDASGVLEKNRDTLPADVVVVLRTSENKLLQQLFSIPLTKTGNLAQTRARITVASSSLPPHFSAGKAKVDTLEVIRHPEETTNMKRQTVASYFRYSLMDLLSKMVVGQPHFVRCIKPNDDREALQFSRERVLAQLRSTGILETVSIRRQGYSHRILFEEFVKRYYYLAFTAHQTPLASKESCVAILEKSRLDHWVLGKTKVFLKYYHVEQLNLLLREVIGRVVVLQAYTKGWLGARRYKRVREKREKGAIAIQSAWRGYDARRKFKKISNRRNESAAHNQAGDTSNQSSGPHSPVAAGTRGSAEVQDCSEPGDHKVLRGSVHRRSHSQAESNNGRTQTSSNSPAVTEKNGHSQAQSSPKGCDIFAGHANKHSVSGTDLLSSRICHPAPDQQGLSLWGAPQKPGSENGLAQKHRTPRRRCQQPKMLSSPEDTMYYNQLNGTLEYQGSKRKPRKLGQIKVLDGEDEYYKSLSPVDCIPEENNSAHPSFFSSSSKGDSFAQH
Chain of PIK3CG (P48736 whole entry): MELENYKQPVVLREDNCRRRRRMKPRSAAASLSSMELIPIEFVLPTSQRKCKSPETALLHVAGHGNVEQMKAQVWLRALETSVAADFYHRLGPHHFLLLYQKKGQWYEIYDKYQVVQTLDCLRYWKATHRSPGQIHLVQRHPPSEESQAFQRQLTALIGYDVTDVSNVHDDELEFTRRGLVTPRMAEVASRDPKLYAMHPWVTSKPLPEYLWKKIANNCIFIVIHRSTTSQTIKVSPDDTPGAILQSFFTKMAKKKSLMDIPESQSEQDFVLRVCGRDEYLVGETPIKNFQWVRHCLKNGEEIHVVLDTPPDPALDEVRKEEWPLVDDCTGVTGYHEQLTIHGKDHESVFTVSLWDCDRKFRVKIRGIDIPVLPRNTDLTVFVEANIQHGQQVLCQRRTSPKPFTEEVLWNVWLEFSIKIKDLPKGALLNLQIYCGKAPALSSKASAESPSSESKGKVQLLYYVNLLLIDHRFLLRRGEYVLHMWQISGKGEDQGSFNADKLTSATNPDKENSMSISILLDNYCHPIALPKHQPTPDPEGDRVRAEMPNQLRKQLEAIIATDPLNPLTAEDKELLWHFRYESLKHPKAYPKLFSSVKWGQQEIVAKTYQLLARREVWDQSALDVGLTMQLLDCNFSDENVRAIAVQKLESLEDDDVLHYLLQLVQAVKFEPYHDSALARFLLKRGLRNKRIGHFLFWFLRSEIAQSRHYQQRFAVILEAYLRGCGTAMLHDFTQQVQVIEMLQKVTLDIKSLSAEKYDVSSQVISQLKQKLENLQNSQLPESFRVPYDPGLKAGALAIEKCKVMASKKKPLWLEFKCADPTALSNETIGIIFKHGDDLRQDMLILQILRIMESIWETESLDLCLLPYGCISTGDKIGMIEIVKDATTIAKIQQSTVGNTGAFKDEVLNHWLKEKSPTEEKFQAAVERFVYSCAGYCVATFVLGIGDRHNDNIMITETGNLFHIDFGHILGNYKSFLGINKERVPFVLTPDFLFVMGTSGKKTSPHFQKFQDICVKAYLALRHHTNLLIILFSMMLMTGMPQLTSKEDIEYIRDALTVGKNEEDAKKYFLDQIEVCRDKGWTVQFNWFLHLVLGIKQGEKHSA
Chain of PHKG1 (Q16816 whole entry): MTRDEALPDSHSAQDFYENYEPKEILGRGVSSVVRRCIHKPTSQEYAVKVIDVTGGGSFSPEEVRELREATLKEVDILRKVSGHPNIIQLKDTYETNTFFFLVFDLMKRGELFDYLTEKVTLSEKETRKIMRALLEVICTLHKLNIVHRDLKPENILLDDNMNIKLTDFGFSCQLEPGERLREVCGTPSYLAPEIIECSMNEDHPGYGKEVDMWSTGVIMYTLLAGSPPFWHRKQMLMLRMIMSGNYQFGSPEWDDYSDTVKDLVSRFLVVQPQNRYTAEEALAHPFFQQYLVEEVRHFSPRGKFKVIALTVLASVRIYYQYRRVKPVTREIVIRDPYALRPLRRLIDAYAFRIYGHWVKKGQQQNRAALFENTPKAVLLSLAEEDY
Chain of EGFR(L747-S752del, P753S) (P00533 with tags, fused parts or gaps DEL747-752/P753S): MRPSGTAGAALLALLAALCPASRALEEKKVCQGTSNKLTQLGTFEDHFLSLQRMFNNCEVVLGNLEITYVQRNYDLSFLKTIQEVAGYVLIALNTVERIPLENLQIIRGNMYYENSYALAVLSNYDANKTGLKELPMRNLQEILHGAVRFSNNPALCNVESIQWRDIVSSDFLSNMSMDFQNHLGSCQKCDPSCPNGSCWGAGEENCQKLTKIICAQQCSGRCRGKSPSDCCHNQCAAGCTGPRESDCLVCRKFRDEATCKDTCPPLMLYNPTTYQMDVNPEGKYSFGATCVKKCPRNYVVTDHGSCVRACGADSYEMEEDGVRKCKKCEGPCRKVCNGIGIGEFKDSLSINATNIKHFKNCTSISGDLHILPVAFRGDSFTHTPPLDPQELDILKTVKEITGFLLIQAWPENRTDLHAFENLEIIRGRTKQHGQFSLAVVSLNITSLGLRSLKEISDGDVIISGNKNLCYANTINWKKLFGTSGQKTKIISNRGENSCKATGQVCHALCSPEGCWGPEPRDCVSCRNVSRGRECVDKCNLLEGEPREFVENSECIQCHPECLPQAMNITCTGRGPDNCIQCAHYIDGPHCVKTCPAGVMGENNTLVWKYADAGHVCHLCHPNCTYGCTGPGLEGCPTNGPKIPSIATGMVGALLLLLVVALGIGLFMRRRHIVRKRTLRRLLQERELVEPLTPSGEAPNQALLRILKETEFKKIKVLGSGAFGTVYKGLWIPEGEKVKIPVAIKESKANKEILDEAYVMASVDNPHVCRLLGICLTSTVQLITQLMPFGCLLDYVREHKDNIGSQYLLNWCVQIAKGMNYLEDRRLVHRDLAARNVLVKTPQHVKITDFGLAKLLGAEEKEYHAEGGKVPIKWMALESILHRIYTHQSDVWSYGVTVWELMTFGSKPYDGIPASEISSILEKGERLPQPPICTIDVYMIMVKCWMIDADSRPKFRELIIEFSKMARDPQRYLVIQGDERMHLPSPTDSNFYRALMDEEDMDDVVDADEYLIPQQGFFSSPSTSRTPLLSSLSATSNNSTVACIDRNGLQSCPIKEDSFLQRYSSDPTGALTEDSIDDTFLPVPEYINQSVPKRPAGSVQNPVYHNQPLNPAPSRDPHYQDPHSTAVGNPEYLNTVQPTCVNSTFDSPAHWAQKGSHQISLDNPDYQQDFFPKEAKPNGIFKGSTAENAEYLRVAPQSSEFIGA
T4 sequence (P51812 whole entry): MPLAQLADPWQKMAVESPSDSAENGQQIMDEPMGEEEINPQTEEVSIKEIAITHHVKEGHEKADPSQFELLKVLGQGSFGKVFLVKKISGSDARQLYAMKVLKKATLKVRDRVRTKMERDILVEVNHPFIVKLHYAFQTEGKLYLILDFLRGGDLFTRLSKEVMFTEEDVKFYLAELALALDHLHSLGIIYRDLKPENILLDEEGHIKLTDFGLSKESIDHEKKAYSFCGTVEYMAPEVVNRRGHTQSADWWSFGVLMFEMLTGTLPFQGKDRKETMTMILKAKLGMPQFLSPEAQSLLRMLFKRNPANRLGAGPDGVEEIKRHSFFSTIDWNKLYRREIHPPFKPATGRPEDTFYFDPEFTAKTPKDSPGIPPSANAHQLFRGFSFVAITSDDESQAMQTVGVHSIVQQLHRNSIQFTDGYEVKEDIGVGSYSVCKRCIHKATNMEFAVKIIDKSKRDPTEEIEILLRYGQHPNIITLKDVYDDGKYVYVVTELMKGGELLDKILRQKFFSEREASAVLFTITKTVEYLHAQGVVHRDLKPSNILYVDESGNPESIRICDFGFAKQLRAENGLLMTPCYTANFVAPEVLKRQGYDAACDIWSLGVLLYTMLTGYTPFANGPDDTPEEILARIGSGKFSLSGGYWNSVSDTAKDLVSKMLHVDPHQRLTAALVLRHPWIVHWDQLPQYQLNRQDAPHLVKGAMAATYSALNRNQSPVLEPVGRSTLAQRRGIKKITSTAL

On to `CNS(=O)(=O)c1ccc(N(C)C)c(Nc2nc(C)nc3cc(OC)c(OC)cc23)c1` [compound 15, 3-((6,7-dimethoxy-2-methylquinazolin-4-yl)amino)-4-(dimethylamino)-N-methylbenzenesulfonamide], for which the inhibition at 1 µM in assay [1] came to 0%; in assay [2] it was 0%; in [3] it was 21%; in [4], 28%; in assay [5], 11%; in assay [6] it was 4%. Moreover, the inhibition at 1 µM was 0% in [7]; 3% in assay [8]; 10% in [9]; 32% in [10]; 0% in assay [11]; 9% in assay [12]. Besides, the inhibition at 1 µM was found to be 0% in assay [13]; 0% in assay [14]; 15% in [15]; 13% in assay [16]; 0% in [17]; 21% in assay [18]. The inhibition at 1 µM in [19] is 0%; in assay [20], 0%; in assay [21], 5%; in assay [22] it was 15%; in assay [23], 17%; in [24] it was 15%.
